Data from patent publication EP4810494A1, “HPK1 DEGRADATION AGENT AND USE THEREOF IN FIELD OF MEDICINE” (Haisco Pharmaceutical Group Co., Ltd., priority 2023, dated 2025).
Where a name gives a salt, the structure may show the parent alone.

Key:
[1] = Pharmacokinetic test in mice; type: in vivo, ICR mice; conditions: mouse, plasma, po, i. g., 10 mg/kg
In short: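 Male ICR mice (20-35 g), fasted overnight and fed 4 h post-dose, received a single intravenous or intragastric dose. Orbital blood into EDTA-K2 tubes at 0–24 h; plasma quantified by LC-MS/MS to derive PK parameters and bioavailability.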

[2] = target: T1, HPK1 kinase (Homo sapiens, UniProt Q92918); assay: HPK1 kinase assay (Km concentration ATP); type: biochemical; conditions: for IC50: ATP at Km concentration (working concentration: 9 µM); for inhibitory activity against HPK1 kinase (in words): Km concentration ATP, conclusion
T1 construct: purchased Carna 07-410
T1 sequence (Q92918 1-346 limits assumed): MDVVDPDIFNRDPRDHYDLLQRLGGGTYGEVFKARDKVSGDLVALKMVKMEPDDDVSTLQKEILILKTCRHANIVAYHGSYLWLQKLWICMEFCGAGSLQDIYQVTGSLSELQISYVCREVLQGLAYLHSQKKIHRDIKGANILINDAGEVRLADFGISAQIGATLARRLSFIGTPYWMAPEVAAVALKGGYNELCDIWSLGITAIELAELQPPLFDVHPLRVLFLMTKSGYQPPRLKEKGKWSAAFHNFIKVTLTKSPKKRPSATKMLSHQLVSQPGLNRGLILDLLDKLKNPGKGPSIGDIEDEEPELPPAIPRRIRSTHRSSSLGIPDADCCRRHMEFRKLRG
Protocol: Test example 3: HPK1 kinase assay (Km concentration ATP)
The kinase HPK1 (Carna, Cat.No 07-410) was prepared into 2× kinase solution using 1× kinase buffer. The substrate Fluorescein-PKC (Invitrogen, Cat. No. PV3506) and ATP (working concentration: 9 µM) (Sigma, Cat. No. 2383-5G) were prepared into 2× substrate solution using 1×kinase buffer. The detection reagent was diluted to 2-fold the final concentration using an antibody diluent. 100 nL of compounds at different concentrations and 5 µL of kinase solution were added to each well of a 384-well plate, and the mixture was incubated at room temperature for 10 minutes. After the incubation was completed, 5 µL of substrate solution was added to each well, and the resulting mixture was reacted at room temperature for 90 minutes. After the reaction was completed, 10 µL of detection reagent was added to each well to terminate the reaction, and the mixture was incubated at room temperature for 60 minutes. Fluorescence readings were detected using an Envision instrument with excitation at 320 nm and emission at 520 nm and 495 nm. IC50 value was calculated using XLFit excel add-in version 5.4.0.8 software. The calculation formula of the inhibition rate was shown in formula 3-1, where max is the Ratio of the DMSO control, min is the Ratio of the negative control without enzyme, and sample is the Ratio of the compound. Ratio = RFU520nm /RFU495nm [formula] Inhibition% = (max−sample)/(max−min) × 100% [formula] Table 3-1 Inhibitory activity of test compounds against HPK1 kinase

[3] = target: T2, HPK1 protein (Homo sapiens, UniProt Q92918); assay: Detection of HPK1 protein expression level in Jurkat cells (24 h); type: cell-based; conditions: 24 hours incubation
T2 construct: host or cells: Jurkat cells
T2 sequence (Q92918 whole entry): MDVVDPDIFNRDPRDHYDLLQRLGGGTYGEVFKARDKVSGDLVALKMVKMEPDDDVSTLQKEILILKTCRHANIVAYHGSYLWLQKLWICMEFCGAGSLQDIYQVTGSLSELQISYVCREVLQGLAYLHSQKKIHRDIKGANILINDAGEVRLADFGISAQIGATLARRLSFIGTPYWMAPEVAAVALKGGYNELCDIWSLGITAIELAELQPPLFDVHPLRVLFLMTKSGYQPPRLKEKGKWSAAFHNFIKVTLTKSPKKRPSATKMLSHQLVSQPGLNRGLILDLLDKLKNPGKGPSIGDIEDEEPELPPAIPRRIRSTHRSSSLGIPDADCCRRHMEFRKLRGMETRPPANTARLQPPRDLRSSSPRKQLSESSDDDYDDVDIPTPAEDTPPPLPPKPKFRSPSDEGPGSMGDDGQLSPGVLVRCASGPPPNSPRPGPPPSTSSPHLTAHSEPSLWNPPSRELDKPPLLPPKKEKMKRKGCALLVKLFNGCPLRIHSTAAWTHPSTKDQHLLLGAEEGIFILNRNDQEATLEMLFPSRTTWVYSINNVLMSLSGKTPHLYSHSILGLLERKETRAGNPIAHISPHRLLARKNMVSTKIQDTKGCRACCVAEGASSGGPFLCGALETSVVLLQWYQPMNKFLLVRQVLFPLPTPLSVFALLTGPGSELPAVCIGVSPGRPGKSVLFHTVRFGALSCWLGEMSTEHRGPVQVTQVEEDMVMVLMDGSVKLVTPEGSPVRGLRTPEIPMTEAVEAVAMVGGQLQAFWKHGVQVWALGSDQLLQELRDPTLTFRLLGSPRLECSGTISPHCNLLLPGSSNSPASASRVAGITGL
In short: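 Jurkat cells at 5 × 10^5 cells/well were exposed to compounds for 24 h at 37 °C, with vehicle medium containing 0.2% DMSO as control. HPK1 in lysates (0.2 mg/mL) was measured by automated quantitative immunoassay and normalized to β-actin. Degradation was expressed relative to vehicle, and DC50 came from four-parameter fits.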

[4] = Pharmacokinetic test in rats; type: in vivo, SD rats; conditions: rat, plasma
Protocol: Test example 7: Pharmacokinetic test in rats
Experimental animals: Male SD rats, 180-200 g, purchased from Chengdu Dossy Experimental Animals Co., Ltd. with the laboratory animal production license number of SCXK (CHUAN) 2020-030.
Experimental design: on the day of the experiment, the SD rats were randomly grouped according to their body weights. The animals were fasted but with water available overnight before the administration, and fed 4 h after the administration.
Vehicle for intragastric administration: 5% Solutol+5% TPGS+30% PEG400+60% (20% SBE-β-CD)
Blood was taken from the orbits of the […] at specified time points, and placed in an EDTAK2 centrifuge tube. Centrifugation was performed at 5000 rpm for 10 min, and the plasma was collected.
Blood sampling time points for the intravenous administration group were: 0, 5 min, 15 min, 30 min, 1 h, 2 h, 4 h, 6 h, 8 h and 24 h; blood sampling time points for the intragastric administration group were: 0, 5 min, 15 min, 30 min, 1 h, 2 h, 4 h, 6 h, 8 h and 24 h. Before analysis and detection, all the samples were stored at - 60°C or lower. The samples were analysed quantitatively by LC-MS/MS. Table 7-1 PK data of test compound drug in rats

[5] = system: IL-2 secretion by T cells; assay: IL-2 detection assay in cells (ELISA, pan-T cells isolated from PBMCs); type: cell-based; conditions: IL-2, CD3 antibody-coated plate, 24 hours
Protocol: 9. IL-2 detection assay in cells
Activating effect of compounds on IL-2 secretion by T cells was evaluated using the ELISA method. Frozen PBMCs were thawed, and pan-T cells were isolated and purified using a T cell sorting kit (Stemcell, 17951). The cells were resuspended in 1640 complete medium and incubated in a 37°C&5%CO2 incubator overnight. A 96-well plate coated with an anti-human CD3 antibody (Thermo, 16-0037-38) at a final concentration of 5 µg/mL was incubated at 37°C for 2 h. The overnight-cultured cells were collected by centrifugation, the supernatant was discarded, and the cells were resuspended in 1640 complete medium, and seeded in the CD3 antibody-coated 96-well plate at a density of 10^5cells/well. The compounds at different concentrations were added, and the mixture was incubated in a 37°C&5%CO2 incubator for 24 hours. After the incubation was completed, the resulting mixture was centrifuged at 1000 rpm for 1 minute to collect the supernatant, and IL-2 was detected according to the ELISA instructions. DMSO without compounds was used as the control group to calculate the activation rate of the compounds, and prism was used to fit the activation curve. Maximum activation fold = maximum activation rate/control group. Table 9-1 Results of IL-2 activation by test compounds

| SMILES | AUC [1] [ng·h/mL] | Cmax [1] [ng/mL] | half-life [1] [h] | IC50 [2] [nM] | inhibitory activity against HPK1 kinase (in words) [2] | DC50 [3] [nM] | clearance ([4]; IV, 2.5 mg/kg) [mL/min/kg] | half-life ([4]; IV, 2.5 mg/kg) [h] | AUC ([4]; po, i. g., 10 mg/kg) [ng·h/mL] | Cmax ([4]; po, i. g., 10 mg/kg) [ng/mL] | half-life ([4]; po, i. g., 10 mg/kg) [h] | Activation fold at 100 nM concentration ([5]; 100 nM) | Maximum activation fold ([5]; maximum activation rate/control group) |
| --- | --- | --- | --- | --- | --- | --- | --- | --- | --- | --- | --- | --- | --- |
| O=C1CCC(c2ccc(N3CCN(CC4CCN(c5ccc(Nc6ccc(-c7cnc8cc(F)ccn78)c7c6C(=O)NC7)nc5)CC4)CC3)cc2F)C(=O)N1 (racemic) [Trifluoroacetic acid salt of compound 1] | 14700 | 1070 | 6.73 | < 10 | good inhibitory activity | < 20 |  |  |  |  |  |  |  |
| O=C1CCN(c2cc3c(cc2F)N2CCN(CC4CCN(c5ccc(Nc6ccc(-c7cnc8cc(F)ccn78)c7c6C(=O)NC7)nc5)CC4)C[C@H]2CC3)C(=O)N1 [Trifluoroacetic acid salt of compound 6] | 20800 | 1520 | 5.35 | < 10 | good inhibitory activity | < 20 | 9.78 | 6.58 | 8360 | 721 | 6.4 | >10 | >10 |
| O=C1CCN(c2cc3c(cc2F)N2CCN(CC4CCN(c5ccc(Nc6ccc(-c7cnc8cc(F)ccn78)c7c6C(=O)NC7)nc5)CC4)C[C@@H]2CC3)C(=O)N1 [Compound 5] | 20000 | 1380 | 6.45 | < 10 | good inhibitory activity | < 20 |  |  |  |  |  |  |  |
